From patent US11179369B2, “Sustained release pharmaceutical compositions” (Wyeth, LLC, priority 2003, dated 2021)

How the values were obtained:
[1] = Side effects on dosing subject patients with aplindore; assay type: in vivo, human; details: correlated with time period of maximal plasma levels
From the text: In especially preferred embodiments of each of the formulations of the invention, the active compound is aplindore. Aplindore and pharmaceutically acceptable salts thereof are particularly well-suited to treating various disorders of the central nervous system and more particularly to those central nervous disorders relating to the dopaminergic system. Because aplindore (or any drug) requires a sufficient exposure level to achieve its desired effects, the drug must be dosed in a manner sufficient to achieve the particular blood plasma level over a period of time deemed sufficient to meet the clinical objective sought. […] Simply reducing the dose would not always be satisfactory since, while the side effects might lessen or disappear, the overall drug exposure levels might not be satisfactory to treat the particular condition.

[2] = Water solubility; assay type: physicochemical
Method: The tablet shapes and total tablet weights were kept same for all four different strengths and for the two different release rate tablets. […] In the formulations of aplindore fumarate 5.0 mg, 2.0 mg, 0.5 mg and 0.05 mg medium and slow release formulations, Lactose Fast Flo has been chosen as the water-soluble compensating excipient. […] It has been used in the 10.0 mg medium release formulation.

water solubility [2]	SMILES	side effects [1]
–	O=C1Cc2c(ccc3c2O[C@@H](CNCc2ccccc2)CO3)N1 [aplindore, S-2-[(Benzylamino)-methyl]-2,3,8,9-tetrahydro-7H-1,4-dioxino[2,3-e]indol-8-one]	side effects including nausea and vomiting
highly water-soluble	O=C(O)/C=C/C(=O)O.O=C1Cc2c(ccc3c2O[C@@H](CNCc2ccccc2)CO3)N1 [aplindore fumarate]	–
